According to ChEMBL document CHEMBL5528040, “Design and Synthesis of Novel 3-Nitro-1H-1,2,4-triazole-1,2,3-triazole-1,4-disubstituted Analogs as Promising Antitrypanosomatid Agents: Evaluation of In Vitro Activity against Chagas Disease and Leishmaniasis” (J Med Chem, 2024):

Columns and labels:
[1] = Mutagenicity in Salmonella typhimurium TA98 assessed as mutagenic index ratio at 1500 ug per plate incubated for 90 mins by AMES test; format: toxicity, Salmonella enterica subsp. enterica serovar Typhimurium; settings: in vivo, 1.5 h, dose 1500 µg
[2] = Mutagenicity in Salmonella typhimurium TA102 assessed as number of revertant colonies at 500 ug per plate incubated for 90 mins in presence of S9 fraction by AMES test (reference value: 130.00 +/- 6.93); format: toxicity, subcellular, Salmonella enterica subsp. enterica serovar Typhimurium; settings: s9, 1.5 h, dose 500 µg
[3] = Mutagenicity in Salmonella typhimurium TA98 assessed as mutagenic index ratio at 500 ug per plate incubated for 90 mins in presence of S9 fraction by AMES test; format: toxicity, subcellular, Salmonella enterica subsp. enterica serovar Typhimurium; settings: s9, 1.5 h, dose 500 µg
[4] = Mutagenicity in Salmonella typhimurium TA98 assessed as mutagenic index ratio at 5000 ug per plate incubated for 90 mins in presence of S9 fraction by AMES test; format: toxicity, subcellular, Salmonella enterica subsp. enterica serovar Typhimurium; settings: s9, 1.5 h, dose 5000 µg
[5] = Mutagenicity in Salmonella typhimurium TA98 assessed as number of revertant colonies at 500 ug per plate incubated for 90 mins by AMES test (reference value: 22.67 +/- 0.58); format: toxicity, Salmonella enterica subsp. enterica serovar Typhimurium; settings: in vivo, 1.5 h, dose 500 µg
[6] = Mutagenicity in Salmonella typhimurium TA98 assessed as mutagenic index ratio at 500 ug per plate incubated for 90 mins by AMES test; format: toxicity, Salmonella enterica subsp. enterica serovar Typhimurium; settings: in vivo, 1.5 h, dose 500 µg
[7] = Mutagenicity in Salmonella typhimurium TA98 assessed as number of revertant colonies at 50 ug per plate incubated for 90 mins by AMES test (reference value: 22.67 +/- 0.58); format: toxicity, Salmonella enterica subsp. enterica serovar Typhimurium; settings: in vivo, 1.5 h, dose 50 µg
[8] = Mutagenicity in Salmonella typhimurium TA98 assessed as mutagenic index ratio at 150 ug per plate incubated for 90 mins by AMES test; format: toxicity, Salmonella enterica subsp. enterica serovar Typhimurium; settings: in vivo, 1.5 h, dose 150 µg
[9] = Mutagenicity in Salmonella typhimurium TA102 assessed as number of revertant colonies at 150 ug per plate incubated for 90 mins in presence of S9 fraction by AMES test (reference value: 130.00 +/- 6.93); format: toxicity, subcellular, Salmonella enterica subsp. enterica serovar Typhimurium; settings: s9, 1.5 h, dose 150 µg
[10] = Mutagenicity in Salmonella typhimurium TA102 assessed as mutagenic index ratio at 1500 ug per plate incubated for 90 mins in presence of S9 fraction by AMES test; format: toxicity, subcellular, Salmonella enterica subsp. enterica serovar Typhimurium; settings: s9, 1.5 h, dose 1500 µg
[11] = Mutagenicity in Salmonella typhimurium TA98 assessed as number of revertant colonies at 150 ug per plate incubated for 90 mins in presence of S9 fraction by AMES test (reference value: 21.00 +/- 1.00); format: toxicity, subcellular, Salmonella enterica subsp. enterica serovar Typhimurium; settings: s9, 1.5 h, dose 150 µg
[12] = Mutagenicity in Salmonella typhimurium TA100 assessed as number of revertant colonies at 5000 ug per plate incubated for 90 mins by AMES test (reference value: 88.00 +/- 2.65); format: toxicity, Salmonella enterica subsp. enterica serovar Typhimurium; settings: in vivo, 1.5 h, dose 5000 µg
[13] = Mutagenicity in Salmonella typhimurium TA102 assessed as number of revertant colonies at 1500 ug per plate incubated for 90 mins by AMES test (reference value: 110.67 +/- 20.15); format: toxicity, Salmonella enterica subsp. enterica serovar Typhimurium; settings: in vivo, 1.5 h, dose 1500 µg
[14] = Mutagenicity in Salmonella typhimurium TA98 assessed as number of revertant colonies at 5000 ug per plate incubated for 90 mins in presence of S9 fraction by AMES test (reference value: 21.00 +/- 1.00); format: toxicity, subcellular, Salmonella enterica subsp. enterica serovar Typhimurium; settings: s9, 1.5 h, dose 5000 µg
[15] = Mutagenicity in Salmonella typhimurium TA98 assessed as number of revertant colonies at 5000 ug per plate incubated for 90 mins by AMES test (reference value: 22.67 +/- 0.58); format: toxicity, Salmonella enterica subsp. enterica serovar Typhimurium; settings: in vivo, 1.5 h, dose 5000 µg
[16] = Mutagenicity in Salmonella typhimurium TA98 assessed as mutagenic index ratio at 5000 ug per plate incubated for 90 mins by AMES test; format: toxicity, Salmonella enterica subsp. enterica serovar Typhimurium; settings: in vivo, 1.5 h, dose 5000 µg
[17] = Mutagenicity in Salmonella typhimurium TA102 assessed as number of revertant colonies at 1500 ug per plate incubated for 90 mins in presence of S9 fraction by AMES test (reference value: 130.00 +/- 6.93); format: toxicity, subcellular, Salmonella enterica subsp. enterica serovar Typhimurium; settings: s9, 1.5 h, dose 1500 µg
[18] = Mutagenicity in Salmonella typhimurium TA102 assessed as mutagenic index ratio at 1500 ug per plate incubated for 90 mins by AMES test; format: toxicity, Salmonella enterica subsp. enterica serovar Typhimurium; settings: in vivo, 1.5 h, dose 1500 µg
[19] = Mutagenicity in Salmonella typhimurium TA100 assessed as mutagenic index ratio at 150 ug per plate incubated for 90 mins in presence of S9 fraction by AMES test; format: toxicity, subcellular, Salmonella enterica subsp. enterica serovar Typhimurium; settings: s9, 1.5 h, dose 150 µg
[20] = Mutagenicity in Salmonella typhimurium TA102 assessed as mutagenic index ratio at 50 ug per plate incubated for 90 mins by AMES test; format: toxicity, Salmonella enterica subsp. enterica serovar Typhimurium; settings: in vivo, 1.5 h, dose 50 µg
[21] = Mutagenicity in Salmonella typhimurium TA98 assessed as number of revertant colonies at 150 ug per plate incubated for 90 mins by AMES test (reference value: 22.67 +/- 0.58); format: toxicity, Salmonella enterica subsp. enterica serovar Typhimurium; settings: in vivo, 1.5 h, dose 150 µg
[22] = Mutagenicity in Salmonella typhimurium TA102 assessed as mutagenic index ratio at 5000 ug per plate incubated for 90 mins in presence of S9 fraction by AMES test; format: toxicity, subcellular, Salmonella enterica subsp. enterica serovar Typhimurium; settings: s9, 1.5 h, dose 5000 µg
[23] = Mutagenicity in Salmonella typhimurium TA102 assessed as number of revertant colonies at 5000 ug per plate incubated for 90 mins by AMES test (reference value: 110.67 +/- 20.15); format: toxicity, Salmonella enterica subsp. enterica serovar Typhimurium; settings: in vivo, 1.5 h, dose 5000 µg
[24] = Mutagenicity in Salmonella typhimurium TA102 assessed as mutagenic index ratio at 150 ug per plate incubated for 90 mins in presence of S9 fraction by AMES test; format: toxicity, subcellular, Salmonella enterica subsp. enterica serovar Typhimurium; settings: s9, 1.5 h, dose 150 µg
[25] = Mutagenicity in Salmonella typhimurium TA102 assessed as number of revertant colonies at 500 ug per plate incubated for 90 mins by AMES test (reference value: 110.67 +/- 20.15); format: toxicity, Salmonella enterica subsp. enterica serovar Typhimurium; settings: in vivo, 1.5 h, dose 500 µg
[26] = system: Trypanosoma cruzi; assay: Potency index, ratio of Benznidazole IC50 to test compound IC50 for antitrypanosomal activity against Trypanosoma cruzi Tulahuen amastigotes transfected with Escherichia coli beta-galactosidase LacZ gene infected in monkey LLC-MK2 cells assessed as inhibition of amastigotes growth incubated for 72 hrs by absorbance based microplate reader analysis; format: functional
[27] = Mutagenicity in Salmonella typhimurium TA98 assessed as mutagenic index ratio at 50 ug per plate incubated for 90 mins by AMES test; format: toxicity, Salmonella enterica subsp. enterica serovar Typhimurium; settings: in vivo, 1.5 h, dose 50 µg
[28] = Mutagenicity in Salmonella typhimurium TA100 assessed as number of revertant colonies at 150 ug per plate incubated for 90 mins in presence of S9 fraction by AMES test (reference value: 122.67 +/- 5.03); format: toxicity, subcellular, Salmonella enterica subsp. enterica serovar Typhimurium; settings: s9, 1.5 h, dose 150 µg
[29] = Mutagenicity in Salmonella typhimurium TA98 assessed as number of revertant colonies at 1500 ug per plate incubated for 90 mins by AMES test (reference value: 22.67 +/- 0.58); format: toxicity, Salmonella enterica subsp. enterica serovar Typhimurium; settings: in vivo, 1.5 h, dose 1500 µg
[30] = Mutagenicity in Salmonella typhimurium TA102 assessed as number of revertant colonies at 50 ug per plate incubated for 90 mins by AMES test (reference value: 110.67 +/- 20.15); format: toxicity, Salmonella enterica subsp. enterica serovar Typhimurium; settings: in vivo, 1.5 h, dose 50 µg
[31] = Mutagenicity in Salmonella typhimurium TA100 assessed as mutagenic index ratio at 5000 ug per plate incubated for 90 mins by AMES test; format: toxicity, Salmonella enterica subsp. enterica serovar Typhimurium; settings: in vivo, 1.5 h, dose 5000 µg
[32] = Mutagenicity in Salmonella typhimurium TA98 assessed as number of revertant colonies at 50 ug per plate incubated for 90 mins in presence of S9 fraction by AMES test (reference value: 21.00 +/- 1.00); format: toxicity, subcellular, Salmonella enterica subsp. enterica serovar Typhimurium; settings: s9, 1.5 h, dose 50 µg

Question: Which Ratio [1] does the source give for `O=[N+]([O-])c1ncn(Cc2cn(-c3ccc(OC(F)(F)F)cc3)nn2)n1` here?
Answer: The Ratio was 0.8.

Question: What about the Activity [2] of the same molecule?
Answer: The Activity was 190.

Question: What about the Ratio [3] of the same molecule?
Answer: The Ratio was 1.1.

Question: What about the Ratio [4] of the same molecule?
Answer: The Ratio was 0.7.

Question: What about the Activity [5] of the same molecule?
Answer: The Activity was 21.33.

Question: And the Ratio [6]?
Answer: The Ratio was 0.9.

Question: What about the Activity [7] of the same molecule?
Answer: The Activity was 18.33.

Question: And the Ratio [8]?
Answer: Its Ratio is 1.

Question: And the Activity [9]?
Answer: The Activity was 172.33.

Question: And the Ratio [10]?
Answer: The Ratio was 1.3.

Question: And the Activity [11]?
Answer: The Activity was 23.33.

Question: And the Activity [12]?
Answer: Its Activity is 80.67.

Question: And the Activity [13]?
Answer: Its Activity is 141.

Question: What about the Activity [14] of the same molecule?
Answer: Its Activity is 15.33.

Question: What about the Activity [15] of the same molecule?
Answer: Its Activity is 25.

Question: And the Ratio [16]?
Answer: Its Ratio is 1.1.

Question: What about the Activity [17] of the same molecule?
Answer: The Activity was 178.67.

Question: What about the Ratio [18] of the same molecule?
Answer: Its Ratio is 1.2.

Question: What about the Ratio [19] of the same molecule?
Answer: The Ratio was 0.9.

Question: And the Ratio [20]?
Answer: Its Ratio is 1.9.

Question: What about the Activity [21] of the same molecule?
Answer: The Activity was 24.67.

Question: And the Ratio [22]?
Answer: Its Ratio is 1.

Question: And the Activity [23]?
Answer: Its Activity is 143.67.

Question: And the Ratio [24]?
Answer: The Ratio was 1.3.

Question: What about the Activity [25] of the same molecule?
Answer: Its Activity is 159.67.

Question: And the “Ratio IC50” value [26]?
Answer: The value was 68.

Question: What about the Ratio [27] of the same molecule?
Answer: The Ratio was 0.8.

Question: And the Activity [28]?
Answer: Its Activity is 117.33.

Question: And the Activity [29]?
Answer: Its Activity is 20.33.

Question: And the Activity [30]?
Answer: Its Activity is 215.33.

Question: What about the Ratio [31] of the same molecule?
Answer: The Ratio was 0.9.

Question: What about the Activity [32] of the same molecule?
Answer: Its Activity is 22.67.
